This note sets out measurements from patent publication US20110262996A1, “METHODS AND MATERIALS FOR DEGRADING PYRETHROID” (DANISCO A/S, priority 2008, published 2011).

This assay addresses T1, organophosphate hydrolase (OPH) (Brevundimonas diminuta, UniProt P0A434).
T1 construct: purchased Genencor DEFENZ 130G, lot 102-6181-001
As to the kind of experiment: Time course of permethrin degradation by OPH, permethrin quantified by GCMS. The assay is classed as biochemical. Particulars: for Amount of Permethrin measured: 5 μL of 0.31 mg/mL OPH added to 995 μL of 2.5 mg/mL permethrin, pH 8.5, 22° C., ppm at the detector. Here is the method:
OPH was assayed for the ability to degrade permethrin. Its efficacy has been measured by performing time course experiments wherein a sample of OPH is added to a sample of permethrin. Degraded permethrin is then separated from the reaction mixture and detected on a GCMS.
Experimental Methods and Equipment. A Shimadzu GC2010 Gas Chromatograph with AOC 20i Auto Injector and a Shimadzu GCMS QP2010S Quadrapole Mass Spectrometer were used to analyze the experimental samples. A Supelco Equity-5 column was used (length: 30.0 m, thickness: 0.25 μm, diameter: 0.25 mm) for the assays. However, analogous columns may be substituted.
The equipment was run with the following parameters: • column oven temperature: 120° C. • injector temperature: 250° C. • injection: splitless • pre-run rinses: 3 • post-run rinses: 3 • sample rinses: 2 • linear velocity: 30 cm/sec • column flow: 0.64 mL/min • split ratio: 10 • detector voltage: relative to tuning • ion source temperature: 250° C. • interface temperature: 270° C. • solvent cut time: 3 min • run time: 35 min • temperature ramp: 5° C./min • scan speed: 833
Experimental assays were run using recombinant OPH (DEFENZ™ 130G, lot 102-6181-001; Genencor). Reagents included ammonium carbonate (Sigma 207861, lot 12919JC), cobalt chloride (JT Baker 1670-04, lot Y41640), hydrochloric acid (JT Baker 5620-02, lot A23506), propanol (Sigma 154970, lot 04242AD), and permethrin (Sigma-Pestanal 45614, lot 7079×).
Preparation of Enzyme Samples. OPH enzyme granules (2% protein) were dissolved in 33 mM ammonium carbonate buffer, pH 8.5, at 22° C. The reaction mixture was agitated for 30 minutes, first vortexed, then slowly agitated on a temperature-controlled platform shaker. A 1.5 mL sample of the enzyme solution was taken and centrifuged for 1 minute at 13,000 rpm. An aliquot of the resulting supernatant is used in the pesticide degradation reaction.
Preparation of Permethrin Samples. A stock permethrin sample at a concentration of 100 mg/mL was made by dissolving an appropriate amount of permethrin standard into propanol. The stock sample was stored under refrigeration. For generating standard curves on the GCMS, permethrin standards were made by diluting an aliquot of the stock permethrin sample into propanol to achieve a concentration of 1 mg/mL and 10 mg/mL. Permethrin to be used in the enzyme reaction was prepared by diluting an aliquot of the stock solution into 33 mM ammonium carbonate buffer at the desired pH for a particular reaction, and at room temperature.
Enzyme Reactions. In a 1.5 mL tube, 250 μL of a 10 mg/mL permethrin solution in propanol was added to 0.75 mL of 33 mM ammonium carbonate buffer, pH 8.5. A 995 μL aliquot of the permethrin solution was placed in a 1.5 mL gas chromatography (GC) sample vial, to which was added a 5 μL aliquot of a 0.31 mg/mL OPH enzyme solution. To inactivate the reaction at any specific time point, a 10 μL aliquot of the reaction solution was removed and added to 990 μL of propanol in a GC sample vial. These samples were then loaded on the GCMS autosampler.
Results and Discussion. This study was conducted to determine whether OPH degrades permethrin. To quantitatively measure amounts of permethrin, the Shimadzu GC with Quadrapole MS detector was used, as in previous pesticide experiments. A standard curve was generated using 1 mg/mL and 10 mg/mL stock solutions in propanol. Regression of the standard curve yielded R2 values of 0.9997 above 50 ppm and of 0.998 below 50 ppm.
Preliminary experiments were conducted to ascertain optimum concentrations for the enzyme reactions. […] Samples were taken at time points of 0, 1, 5, 15, and 30 minutes by removing 10 μL of the reaction mixture and adding it to 990 μL of propanol. […]

For `CC1(C)C(C=C(Cl)Cl)C1C(=O)OCc1cccc(Oc2ccccc2)c1` (stereo not shown) [permethrin], under “after 30 minutes”, the “degraded amount of permethrin at the detector” value amounted to 12 ppm. Moreover, the “Amount of Permethrin measured” value is 31.47 ppm (time 0 min); 25.8 ppm (time 1 min); 25.88 ppm (time 5 min); 24.64 ppm (time 15 min); 19.27 ppm (time 30 min). In addition, the “initial, rapid degradation of permethrin at the detector” value (within 1 minute of the start of the reaction) is recorded as “approximately 6 ppm”.
